According to US20240190880A1 (THE REGENTS OF THE UNIVERSITY OF MICHIGAN, priority 2021, published 2024):

molecular target: T1, ER (Homo sapiens, UniProt P03372); test: ER degradation activity, in-cell western blot analysis in T47D cells; type: cell-based; conditions: 16 hours, Table A does not say which cell line (T47D or MCF7), read-out: Potency (DC50)
T1 construct: host or cells: T47D and MCF7 human breast cancer cells
T1 sequence (P03372 1-595): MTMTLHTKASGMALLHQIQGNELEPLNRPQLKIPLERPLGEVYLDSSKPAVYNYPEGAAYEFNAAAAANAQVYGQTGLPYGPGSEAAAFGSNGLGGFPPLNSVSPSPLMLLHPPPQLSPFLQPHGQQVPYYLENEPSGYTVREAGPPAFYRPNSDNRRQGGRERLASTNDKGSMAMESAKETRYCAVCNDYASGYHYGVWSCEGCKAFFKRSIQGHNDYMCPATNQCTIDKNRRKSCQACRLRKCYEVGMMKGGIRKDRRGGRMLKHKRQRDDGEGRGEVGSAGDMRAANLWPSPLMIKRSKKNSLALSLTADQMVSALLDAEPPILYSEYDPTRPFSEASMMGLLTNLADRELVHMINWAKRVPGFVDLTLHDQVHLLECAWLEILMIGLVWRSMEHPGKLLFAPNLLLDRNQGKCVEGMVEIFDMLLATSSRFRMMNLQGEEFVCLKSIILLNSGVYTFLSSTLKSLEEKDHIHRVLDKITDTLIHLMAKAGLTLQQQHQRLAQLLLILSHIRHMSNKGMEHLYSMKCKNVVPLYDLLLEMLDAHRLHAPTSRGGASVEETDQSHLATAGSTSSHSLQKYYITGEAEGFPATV
Outline: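 ER protein remaining after 16 h compound exposure is quantified in T47D cells by in-cell western, with a no-primary-antibody background control. Values are percentages of DMSO-treated signal.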

Row | SMILES | DC50 [nM]
1 | O=C1CCC(N2C(=O)c3cc4c(cc3C2=O)CN(CC2CCN(C(=O)C3CCN(c5ccc([C@@H]6c7ccc(O)cc7CC[C@@H]6c6ccccc6)cc5)CC3)CC2)C4)C(=O)N1 (stereo partly drawn) [E 204, 2-(2,6-dioxopiperidin-3-yl)-6-((1-(1-(4-((1R,2S)-6-hydroxy-2-phenyl-1,2,3,4-tetrahydronaphthalen-1-yl)phenyl)piperidine-4-carbonyl)piperidin-4-yl)methyl)-6,7-dihydropyrrolo[3,4-f]isoindole-1,3(2H,5H)-dione] | 10 to 100
2 | O=C1CCC(N2C(=O)c3cc4c(cc3C2=O)CN(C(=O)C2CCN(CC3CCN(c5ccc([C@@H]6c7ccc(O)cc7CC[C@@H]6c6ccccc6)cc5)CC3)CC2)C4)C(=O)N1 (stereo partly drawn) [E 205, 2-(2,6-dioxopiperidin-3-yl)-6-(1-((1-(4-((1R,2S)-6-hydroxy-2-phenyl-1,2,3,4-tetrahydronaphthalen-1-yl)phenyl)piperidin-4-yl)methyl)piperidine-4-carbonyl)-6,7-dihydropyrrolo[3,4-f]isoindole-1,3(2H,5H)-dione] | > 100
3 | O=C1CCC(N2C(=O)c3cc4c(cc3C2=O)CN(CC2(F)CN(C(=O)C3CCN(c5ccc([C@@H]6c7ccc(O)cc7CC[C@@H]6c6ccccc6)cc5)CC3)C2)C4)C(=O)N1 (stereo partly drawn) [E 207, 2-(2,6-dioxopiperidin-3-yl)-6-((3-fluoro-1-(1-(4-((1R,2S)-6-hydroxy-2-phenyl-1,2,3,4-tetrahydronaphthalen-1-yl)phenyl)piperidine-4-carbonyl)azetidin-3-yl)methyl)-6,7-dihydropyrrolo[3,4-f]isoindole-1,3(2H,5H)-dione] | > 100
4 | O=C1CCC(N2C(=O)c3cc4c(cc3C2=O)CN(CC2CCN(C(=O)C3(F)CCN(c5ccc([C@@H]6c7ccc(O)cc7CC[C@@H]6c6ccccc6)cc5)CC3)CC2)C4)C(=O)N1 (stereo partly drawn) [E 208, 2-(2,6-dioxopiperidin-3-yl)-6-((1-(4-fluoro-1-(4-((1R,2S)-6-hydroxy-2-phenyl-1,2,3,4-tetrahydronaphthalen-1-yl)phenyl)piperidine-4-carbonyl)piperidin-4-yl)methyl)-6,7-dihydropyrrolo[3,4-f]isoindole-1,3(2H,5H)-dione] | > 100
5 | C[C@@H]1Cc2c([nH]c3ccccc23)[C@@H](c2c(F)cc(N3CC(F)(C(=O)N4CCC(CN5Cc6cc7c(cc6C5)C(=O)N(C5CCC(=O)NC5=O)C7=O)CC4)C3)cc2F)N1CC(F)F (stereo partly drawn) [E 209, 6-((1-(1-(4-((1R,3R)-2-(2,2-difluoroethyl)-3-methyl-2,3,4,9-tetrahydro-1H-pyrido[3,4-b]indol-1-yl)-3,5-difluorophenyl)-3-fluoroazetidine-3-carbonyl)piperidin-4-yl)methyl)-2-(2,6-dioxopiperidin-3-yl)-6,7-dihydropyrrolo[3,4-f]isoindole-1,3(2H,5H)-dione] | 10 to 100
6 | C[C@@H]1Cc2c([nH]c3ccccc23)[C@@H](c2c(F)cc(N3CC(F)(C(=O)N4CCC(F)(CN5Cc6cc7c(cc6C5)C(=O)N(C5CCC(=O)NC5=O)C7=O)CC4)C3)cc2F)N1CC(F)F (stereo partly drawn) [E 210, 6-((1-(1-(4-((1R,3R)-2-(2,2-difluoroethyl)-3-methyl-2,3,4,9-tetrahydro-1H-pyrido[3,4-b]indol-1-yl)-3,5-difluorophenyl)-3-fluoroazetidine-3-carbonyl)-4-fluoropiperidin-4-yl)methyl)-2-(2,6-dioxopiperidin-3-yl)-6,7-dihydropyrrolo[3,4-f]isoindole-1,3(2H,5H)-dione] | > 100
7 | O=C1CCC(N2C(=O)c3cc4c(cc3C2=O)CN(CC2(F)CCN(CC3CCN(c5ccc([C@@H]6c7ccc(O)cc7CC[C@@H]6c6ccccc6)cc5)CC3)CC2)C4)C(=O)N1 (stereo partly drawn) [E 211, 2-(2,6-dioxopiperidin-3-yl)-6-((4-fluoro-1-((1-(4-((1R,2S)-6-hydroxy-2-phenyl-1,2,3,4-tetrahydronaphthalen-1-yl)phenyl)piperidin-4-yl)methyl)piperidin-4-yl)methyl)-6,7-dihydropyrrolo[3,4-f]isoindole-1,3(2H,5H)-dione] | > 100
8 | O=C1CCC(N2C(=O)c3cc4c(cc3C2=O)CN(CC2(F)CN(CC3CCN(c5ccc([C@@H]6c7ccc(O)cc7CC[C@@H]6c6ccccc6)cc5)CC3)C2)C4)C(=O)N1 (stereo partly drawn) [E 212, 2-(2,6-dioxopiperidin-3-yl)-6-((3-fluoro-1-((1-(4-((1R,2S)-6-hydroxy-2-phenyl-1,2,3,4-tetrahydronaphthalen-1-yl)phenyl)piperidin-4-yl)methyl)azetidin-3-yl)methyl)-6,7-dihydropyrrolo[3,4-f]isoindole-1,3(2H,5H)-dione] | > 100
9 | O=C1CCC(N2C(=O)c3cc4c(cc3C2=O)CN(CC(=O)N2CCC3(CC2)CCN(c2ccc([C@H]5c6ccc(O)cc6CC[C@H]5c5ccc(F)cc5)cc2)CC3)C4)C(=O)N1 (stereo partly drawn) [E 213, 2-(2,6-dioxopiperidin-3-yl)-6-(2-(9-(4-((1S,2R)-2-(4-fluorophenyl)-6-hydroxy-1,2,3,4-tetrahydronaphthalen-1-yl)phenyl)-3,9-diazaspiro[5.5]undecan-3-yl)-2-oxoethyl)-6,7-dihydropyrrolo[3,4-f]isoindole-1,3(2H,5H)-dione] | 10 to 100
10 | O=C1CCC(N2C(=O)c3cc4c(cc3C2=O)CN(CC(=O)N2CCC(n3cc(-c5ccc([C@@H]6c7ccc(O)cc7CC[C@@H]6c6ccccc6)cc5)cn3)CC2)C4)C(=O)N1 (stereo partly drawn) [E 214, 2-(2,6-dioxopiperidin-3-yl)-6-(2-(4-(4-(4-((1R,2S)-6-hydroxy-2-phenyl-1,2,3,4-tetrahydronaphthalen-1-yl)phenyl)-1H-pyrazol-1-yl)piperidin-1-yl)-2-oxoethyl)-6,7-dihydropyrrolo[3,4-f]isoindole-1,3(2H,5H)-dione] | > 100
11 | O=C1CCC(N2C(=O)c3cc4c(cc3C2=O)CN(CC(=O)N2CC(n3cc(-c5ccc([C@@H]6c7ccc(O)cc7CC[C@@H]6c6ccccc6)cc5)cn3)C2)C4)C(=O)N1 (stereo partly drawn) [E 215, 2-(2,6-dioxopiperidin-3-yl)-6-(2-(3-(4-(4-((1R,2S)-6-hydroxy-2-phenyl-1,2,3,4-tetrahydronaphthalen-1-yl)phenyl)-1H-pyrazol-1-yl)azetidin-1-yl)-2-oxoethyl)-6,7-dihydropyrrolo[3,4-f]isoindole-1,3(2H,5H)-dione] | > 100
12 | C[C@@H]1Cc2c([nH]c3ccccc23)[C@@H](c2c(F)cc(N3CC(C(=O)N4CCC(CN5Cc6cc7c(cc6C5)C(=O)N(C5CCC(=O)NC5=O)C7=O)CC4)C3)cc2F)N1CC(F)F (stereo partly drawn) [E 216, 6-((1-(1-(4-((1R,3R)-2-(2,2-difluoroethyl)-3-methyl-2,3,4,9-tetrahydro-1H-pyrido[3,4-b]indol-1-yl)-3,5-difluorophenyl)azetidine-3-carbonyl)piperidin-4-yl)methyl)-2-(2,6-dioxopiperidin-3-yl)-6,7-dihydropyrrolo[3,4-f]isoindole-1,3(2H,5H)-dione] | < 10
13 | O=C1CCC(N2C(=O)c3cc4c(cc3C2=O)CN(CC2CCN(CC3CCN(c5ccc([C@@H]6c7ccc(O)cc7CC[C@@H]6c6ccccc6)cc5)CC3)CC2)C4)C(=O)N1 (stereo partly drawn) [E 217, 2-(2,6-dioxopiperidin-3-yl)-6-((1-((1-(4-((1R,2S)-6-hydroxy-2-phenyl-1,2,3,4-tetrahydronaphthalen-1-yl)phenyl)piperidin-4-yl)methyl)piperidin-4-yl)methyl)-6,7-dihydropyrrolo[3,4-f]isoindole-1,3(2H,5H)-dione] | > 100
